This note sets out measurements from ChEMBL document CHEMBL1142391, “Biologically active aspidofractinine alkaloids from Kopsia singapurensis” (J Nat Prod, 2008).

≈ marks a conversion by molar mass, not a printed value.

Common to all, as to assay type: functional, cell-based
A short description of test [1]: Cytotoxicity against vincristine-resistant human KB/VJ300 cells.
The subject of test [2] is KB. Description: Reversal of multidrug resistance in vincristine-resistant human KB cells in presence of 0.1 uM vincristine.
Test [3] relates to KB. Description: Reversal of multidrug resistance in vincristine-resistant human KB cells in presence of 0.121 uM vincristine.

`CCOC(=O)[C@@H]1[C@@H](O)[C@@]23C=CCN4CC[C@@]5(c6ccccc6N[C@]15CC2)[C@@H]43` [KOPSILOSCINE J]: the IC50 is greater than 25 µg/mL in test [1] and 15 µg/mL with KB [2].

Turning to `COC(=O)N1c2c(OC)cccc2[C@@]23CCN4C[C@@H]5O[C@@H]5[C@]5(CC[C@]12[C@](O)(C(=O)OC)[C@@H]5O)[C@H]43` [KOPSIMALINE E], the IC50 was greater than 25 µg/mL in test [1] and 18 µg/mL in the test with KB [2].

For the molecule `COC(=O)N1c2c(ccc3c2OCO3)[C@@]23CCN4C[C@@H]5O[C@@H]5[C@@]5([C@@H](O)[C@@](O)(C(=O)OC)[C@@]12C[C@@H]5O)[C@H]43` [KOPSIMALINE D], the results for the IC50 (in test [1]; with KB [2]) were 25 µg/mL (≈ 49.8 µM) and 9.2 µg/mL, respectively.

Turning to `COC(=O)N1c2c(ccc3c2OCO3)[C@@]23CCN4C[C@@H]5O[C@@H]5[C@]5(CC[C@]12[C@](O)(C(=O)OC)[C@@H]5O)[C@H]43` [KOPSIMALINE A], the IC50 is greater than 25 µg/mL in test [1] and 3.9 mM in the test with KB [3].

With `COC(=O)N1c2c(O)cccc2[C@@]23CCN4C[C@@H]5O[C@@H]5[C@]5(CC[C@]12[C@](O)(C(=O)OC)[C@@H]5O)[C@H]43` [KOPSIMALINE B], the IC50 in test [1] is greater than 25 µg/mL; in the test with KB [2] it was 13 µg/mL.

In the case of `COC(=O)N1c2c(ccc(OC)c2O)[C@@]23CCN4C[C@@H]5O[C@@H]5[C@]5(CC[C@]12[C@](O)(C(=O)OC)[C@@H]5O)[C@H]43` [KOPSIMALINE C], the half-inhibitory concentration (IC50) in test [1] was greater than 25 µg/mL; in the test on KB [2], 18.2 µg/mL.
